Measured values from PubChem BioAssay (NCI).
Values joined by “and” are separate entries in the source; they are usually repeats but may differ in a detail not shown here. Equal values may be shown once.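 Results reflect a 48-hour exposure of cells in 96-well plates to compound at five concentrations. GI50 = concentration required for 50% inhibition of growth. TGI: concentration producing complete growth inhibition.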

Assays:
Experiment in all cases: DTP human tumour cell line panel, 48 h
RPMI-8226 leukemia = system: RPMI-8226 leukemia
NCI-H23 lung = system: NCI-H23 lung
HCC-2998 colon = system: HCC-2998 colon
T-47D breast = system: T-47D breast
CAKI-1 renal = system: CAKI-1 renal
SR leukemia = system: SR leukemia

SMILES	TGI (RPMI-8226 leukemia)	TGI (NCI-H23 lung)	TGI (HCC-2998 colon)	TGI (T-47D breast) [µM]	TGI (CAKI-1 renal) [µM]	GI50 (RPMI-8226 leukemia)	GI50 (NCI-H23 lung)	GI50 (T-47D breast)	GI50 (SR leukemia)	TGI (SR leukemia)	GI50 (CAKI-1 renal)	GI50 (HCC-2998 colon) [µM]
O=C1CC=C2C3CC4N(CCC45c4ccccc4N1C25)C/C3=C\CO (stereo not drawn)	> 100 µM	> 100 µM	> 100 µM	> 100	> 100							
COc1ccc(NC(=O)c2ccc(C(F)(F)F)nc2Nc2ccc(Cl)cc2C)cc1Cl	4.88 µM	15.1 µM		28.9	18.9	2.07 µM	3.09 µM	2.58 µM	1.72 µM	6.46 µM	4.41 µM	
O=C(O)c1nn(-c2ccc(Cl)cc2)c2c1C(=O)c1ccccc1C2=O	> 100 µM	> 100 µM	> 100 µM	> 100	> 100					78.7 µM		
CC1(C)CC[C@]2(C(=O)NCCNCCN)CC[C@]3(C)C(=CC[C@@H]4[C@@]5(C)CCC(=O)C(C)(C)[C@@H]5CC[C@]43C)[C@@H]2C1	6.26 µM	3.71 µM	3.18 µM	3.95	4.47	2.44 µM	1.9 µM	1.88 µM	1.7 µM	4.76 µM	1.82 µM	1.73
CN1CCN(c2ccncc2S(=O)(=O)N2CCN(C)CC2)CC1	> 100 µM	> 100 µM		> 100	> 100							
Cn1cc(-c2ncnc3ccc(-c4cnc(Cl)c(NS(C)(=O)=O)c4)cc23)c2ccccc21	4.17 µM	> 52 µM	13.3 µM	0.691	27	0.419 µM	0.903 µM	0.0944 µM	1.24 µM	> 35.9 µM	0.415 µM	0.812
NC(CCl)=NCC12CC3CC(CC(C3)C1)C2		4.17 µM	7.84 µM	20.1	2.48		0.678 µM	1.2 µM	0.116 µM	0.706 µM	0.426 µM	1.65
O=C(N/N=C/c1ccc([N+](=O)[O-])cc1)c1ccccc1Nc1ccnc(C(F)(F)F)c1	14.5 µM	> 100 µM	49.5 µM	82.4	36.4	1.61 µM	9.47 µM	21.6 µM	1.5 µM	20.2 µM	13.5 µM	17.9
CCC(CO)Nc1nc(NCc2ccccc2)c2n[nH]c(C(C)C)c2n1 (stereo not drawn)	29 µM	31.2 µM	26 µM	41.2	16.2	5.95 µM	12.3 µM	16 µM	3.24 µM	10.6 µM	3 µM	12.6
O=C1/C(=C/c2ccc(Cl)cc2)N=C(c2ccccc2)N1c1cc(C(F)(F)F)ccc1Cl	52.1 µM	> 100 µM	87 µM	> 100	69.5	21.5 µM	34.4 µM	22.4 µM	28.7 µM	68 µM	31 µM	27.5
C[C@]1(c2nc3c(C(N)=O)cccc3[nH]2)CCCN1	> 100 µM	> 100 µM	> 100 µM	> 100	> 100	> 100 µM and 61.6 µM	> 100 µM	68.4 µM and > 100 µM	19.5 µM and 10.4 µM	> 90 µM and 51.4 µM	59 µM and 74.9 µM	> 100
Cc1cccc2c(=O)c3c(sc12)c(NCCCN)nc1ccccc13	3.88 µM	3.5 µM	3.39 µM	3.44	2.47	1.77 µM	1.76 µM	1.5 µM			1.18 µM	1.67
N#Cc1c(N)c(C(=O)c2ccc3c(c2)OCCO3)n2c1CCCC2	> 100 µM	> 100 µM	> 93.1 µM	> 100	> 100	3.93 µM	4.64 µM	4.38 µM	0.869 µM	> 100 µM	3.18 µM	4.1
C/C(COc1ccc2oc(-c3ccccc3)cc(=O)c2c1)=N\O	62.3 µM	> 100 µM	> 100 µM	> 100	> 100	22.3 µM	88.5 µM	16.2 µM			32.5 µM	19.5
CCCCCCCC(=O)Nc1nc2[nH]c(CN3CCN(Cc4cccc(I)c4)CC3)c(CN3CCN(Cc4cccc(I)c4)CC3)c2c(=O)[nH]1	1.81 µM	1.86 µM	1.54 µM	2.18	1.49	0.531 µM	0.92 µM	0.993 µM	0.238 µM	1.06 µM	0.816 µM	0.823
CC(=O)CCc1ccc(Oc2c3ccccc3nc3occc23)cc1	53.9 µM	39.3 µM		22.6	42	13.8 µM	13 µM	2.3 µM	19.7 µM	57.3 µM	18.2 µM	
[Mn+3].[O-][Cl+3]([O-])([O-])O.[O-]c1ccccc1C=NCCN1CC1.[O-]c1ccccc1C=NCCN1CC1	9.91 µM	52.8 µM		> 100	68.1	1.36 µM	15.4 µM	20.3 µM	18.4 µM	39.4 µM	28.8 µM	
CC[C@H](C)[C@H](NC(=O)c1ncccn1)C(=O)N(C)[C@H](C[C@@H](OC(C)=O)c1nc(C(=O)N[C@@H](Cc2ccccc2)C[C@H](C)C(=O)OC)cs1)C(C)C	3.98 µM	> 25 µM	> 25 µM			0.793 µM	5.4 µM		0.213 µM	> 25 µM		6.48
C#Cc1cccc(Nc2nc(C)nc3cc(NC(=O)CCl)ccc23)c1	4.75 µM	7.03 µM	7.76 µM	7.69	6.23	1.12 µM	2.35 µM	3.17 µM	0.561 µM	2.24 µM	2.97 µM	3.79
Oc1cccc2ccc(SSc3ccc4cccc(O)c4n3)nc12	> 100 µM	31.2 µM	21.3 µM	38.6	37.3					> 100 µM		
Oc1cccc2cccnc12	1.07 µM and 4.31 µM	18.9 µM and > 100 µM	28 µM and > 100 µM and 47.9 µM	> 100	> 100	0.2 µM	2.49 µM and 13.4 µM and 3.93 µM			23.7 µM and 3.71 µM		
CO[C@H]1/C=C/O[C@@]2(C)Oc3c(C)c(O)c4c(O)c(c(/C=N/N5C(C)CN(Cc6ccc(C#N)cc6)CC5C)c(O)c4c3C2=O)NC(=O)/C(C)=C\C=C\[C@H](C)[C@H](O)[C@@H](C)[C@@H](O)[C@@H](C)[C@H](OC(C)=O)[C@@H]1C (stereo partly drawn)		30.7 µM	17.6 µM	26.2	17.8		9.67 µM	6.71 µM			7.65 µM	7.87
Oc1c(CN2CCCCC2)ccc2cccnc12	31 µM	36.1 µM	32.8 µM	31	3.23	3.71 µM	6.84 µM	3.63 µM	3.36 µM	> 100 µM	0.52 µM	6.6
O=c1cc(-c2ccccc2)oc2c(O)c(O)ccc12	50.9 µM	> 100 µM	> 100 µM	> 100	61.2	4.03 µM	6.27 µM	16.9 µM	3.35 µM	> 100 µM	7.18 µM	23.8
COC(=O)[C@@H](C)C[C@H](Cc1ccc(F)cc1)NC(=O)c1csc([C@@H](C[C@H](C(C)C)N(C)C(=O)[C@@H](NC(=O)[C@H]2CCCCN2C)C2CC2)OC(C)=O)n1	> 25 µM	> 25 µM	> 25 µM	> 25		0.104 µM	1.14 µM	> 25 µM	0.0282 µM	> 25 µM		2.48
COc1ccc(-c2c(NC(=O)Nc3ccc(Cl)c(C(F)(F)F)c3)cnn2-c2ccc(S(N)(=O)=O)cc2)cc1	13.5 µM	12.4 µM	8.85 µM	12.4		3.14 µM	3.14 µM	2.69 µM	1.99 µM	5.83 µM		3.13
FC(F)(F)c1cccc(Oc2ccc(Nc3ncnc4ccc(OCCCN5CCOCC5)cc34)cc2Cl)c1		13.4 µM	3.34 µM	6.35	6.62		3.19 µM	1.29 µM			1.34 µM	1.72
COc1ccc(OC)c(-c2cc(-c3ccc(Cl)cc3)nn2-c2ccccc2)c1	26.5 µM	> 100 µM	52.8 µM		66.9	3.29 µM	27.7 µM		4.34 µM	> 100 µM	24.2 µM	26.4
COc1cccc(C2SC(C)C(=O)N2NC(=O)C(O)c2ccccc2)c1 (stereo not drawn)	> 100 µM	> 100 µM	> 100 µM	> 100	> 100	> 100 µM	> 100 µM	> 100 µM			> 100 µM	> 100
Cc1cc(C)c([I+]c2c(C)cc(C)cc2C)c(C)c1		1.83 µM	1.73 µM	2.19	4.15		0.334 µM	0.406 µM			1.43 µM	0.415
